According to patent publication US12138291B2, “Hemostatic composition and hemostatic method using hemostatic composition” (3-D MATRIX, LTD., priority 2015, dated 2024):

How the values were obtained:
[1] = Storage elastic modulus of peptide solutions before application (frequency sweep test); type: physicochemical; conditions: shear stress 1 Pa
Procedure: Frequency sweep tests were conducted from 1 rad/sec to 10 rad/sec at a shear stress of 1 Pa, and the storage elastic modulus at 10 rad/sec was selected as data. As for a viscosity before gelling, tests were conducted for a soaking time of 2 min by loading each peptide solution between 20 mm plates with a gap distance of 500 um.

[2] = test system: bleeding site of the porcine liver; assay: Hemostasis of oozing bleeding created by abrading the porcine liver, usual application vs spray application; type: in vivo, pig; conditions: for hemostasis outcome: peptide 1.5% (FIG. 9)
Excerpt: Oozing bleeding was created by abrading the porcine liver using a metal file. A self-organizing peptide solution was applied to the bleeding by usual application or spray application and evaluated for its hemostatic effect and applied amount.
• Animal species: pig • Breed: LWD • Sex: female • The number of animals introduced: 2 • Age in days at the time of introduction: any Body weight at the time of introduction: 50 kg Institute receiving the animals: Narita experimental laboratory of NAS Laboratory Co., Ltd. • Distributor of the animals: Ishige Tikusan • Acclimatization period: approximately 7 days after introduction • Quarantine: the absence of abnormalities was confirmed by quarantine under clinical observation at the time of introduction and during the acclimatization period. • Individual discrimination: ear tag <Rearing Conditions> (1) Rearing environment
Atropine sulfate was intramuscularly administered at 0.05 mg/kg (dosing volume: 0.1 mL/kg) to each animal. Approximately 30 minutes later, 20 mg/kg (dosing volume: 0.4 mL/kg) of ketamine hydrochloride and 4 mg/kg (dosing volume: 0.2 mL/kg) of xylazine hydrochloride were mixed and intramuscularly administered thereto. Each anesthetic was introduced by the intramuscular administration to the ear root using a disposable syringe (Terumo Corp.) attached with an 18 G injection needle (Terumo Corp.). Then, a tracheal tube (TOP intratracheal tube, TOP Corp.) was intubated, and the anesthesia was maintained with isoflurane using an inhalation anesthesia apparatus SUBARU-KJ02 (Mikasa Kantou Syoukai Co., Ltd.) and a mechanical ventilator (COMPOS β-EV, Metran Co., Ltd.). The perioperative isoflurane concentration was set to 1 to 3%, and the amount of oxygen was set to 2 L/min. The intrapulmonary pressure of the mechanical ventilator was set to 15 cm H2O, and the respiratory rate was set to 15 times/min. Each animal was placed supine on an operating table and covered with a sterilized drape.
• 1. Each completely anesthetized pig was laparotomized by abdominal midline incision using a surgical knife and an electric surgical knife to expose the liver. • 2. Oozing bleeding was created by abrading the liver using a metal file. • 3. Each test substance was applied to the bleeding inclined plane by usual application (*1) or spray application (*2). • 4. The time from after the end of application to the end of assessment of the completion of hemostasis was measured using a stopwatch (*3). The amount of each test substance used until the end of the test was recorded. • *1: A syringe was packed with the peptide solution (test substance), and the peptide solution was pushed out of a nozzle at the tip of the syringe and thereby applied to the subject (see the syringe of FIG. 1). • 2: A syringe (equivalent to that of FIG. 1) packed with the peptide solution (test substance) was loaded in a spray gun, and compressed air was blown to a nozzle at the tip of the syringe using a compressor so that the peptide solution pushed out of the nozzle was sprayed to the subject. The spray pressure was generally 0.5 to 1.5 [kgf/cm2], though differing depending on the viscosity of each test substance, the status of bleeding, and the distance to the application site. • 3: If bleeding was not weakened after initial application (if it was judged that this condition would not lead to hemostasis), additional application was appropriately performed. The time of completion of initial application was defined as the start of measurement, and the time of completion of hemostasis assessment was defined as the end of measurement. <Results>

[3] = peptide concentrations of 1.5% or higher (1.5%, 2.0%, 2.5%)

Row | Sequence | Storage elastic modulus G′ (Pa) (mean: N = 3) ([1]; peptide 1.0% by weight, pH 3.0, at 10 rad/sec) | Storage elastic modulus G′ (Pa) (mean: N = 3) ([1]; peptide 1.5% by weight, pH 3.0, at 10 rad/sec) | amount of the solution applied until hemostasis, spray application group compared with usual application group ([2]; peptide concentration 1.0%) | hemostasis completion time, spray application group compared with usual application group ([2]; peptide concentration 1.0%) | amount of the solution applied until hemostasis, spray application group compared with usual application group ([2]; peptide concentration 1.5%) | hemostasis completion time, spray application group compared with usual application group ([2]; peptide concentration 1.5%) | Storage elastic modulus G′ (Pa) (mean: N = 3) ([1]; peptide 1.0% by weight, pH no treatment, at 10 rad/sec) | Storage elastic modulus G′ (Pa) (mean: N = 3) ([1]; peptide 1.5% by weight, pH no treatment, at 10 rad/sec) | Storage elastic modulus G′ (Pa) (mean: N = 3) ([1]; peptide 2.0% by weight, pH no treatment, at 10 rad/sec) | Storage elastic modulus G′ (Pa) (mean: N = 3) ([1]; peptide 2.5% by weight, pH no treatment, at 10 rad/sec) | amount of the solution applied until hemostasis, spray application group compared with usual application group [2, 3] | hemostasis completion time, spray application group compared with usual application group [2, 3] | Storage elastic modulus G′ (Pa) (mean: N = 3) ([1]; peptide 1.0% by weight, pH 7.5, at 10 rad/sec) | Storage elastic modulus G′ (Pa) (mean: N = 3) ([1]; peptide 1.5% by weight, pH 7.5, at 10 rad/sec) | Storage elastic modulus G′ (Pa) (mean: N = 3) ([1]; peptide 2.0% by weight, pH 7.5, at 10 rad/sec) | hemostasis outcome ([2]; spray application) | hemostasis outcome ([2]; usual application)
1 | IEIKIEIKIEIKI [Peptide No. 2] | 349.0 | 2,309 Pa | no significant difference | no significant difference | smaller amount of the solution applied until hemostasis | evidently resulted in a shorter hemostasis completion time | – | – | – | – | – | – | – | – | – | – | –
2 | RADARADARADARADA [Peptide No. 1] | – | – | smaller amount of the solution applied until hemostasis | tendencies of a shorter hemostasis completion time | – | – | 30 | 75 | 141 | 503 | smaller amount of the solution applied until hemostasis | evidently resulted in a shorter hemostasis completion time | – | – | – | – | –
3 | RLDLRLALRLDLR (Ac-RLDLRLALRLDLR-NH2) [Peptide No. 3, self-assembling peptide, solution in purified water] | – | – | – | – | – | – | – | – | – | – | – | – | 75 | 239 | 439 | succeeded in hemostasis | failed in hemostasis
